From ChEMBL document CHEMBL1201862, “PubChem BioAssay data set” (2004)
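Results reflect a 48-hour exposure of cells in 96-well plates to compound at five concentrations. GI50: concentration for 50% inhibition of growth.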 Calls of active or inactive are those of the source. Rule as the data show it: active = GI50 up to about 1.1 µM and inactive = higher.

Legend:
Test in all cases: NCI tumour cell line growth inhibition, 48 h
SF-268 = system: SF-268
SK-MEL-28 = system: SK-MEL-28
HCC 2998 = system: HCC 2998
CAKI-1 = system: CAKI-1
NCI-H460 = system: NCI-H460
SR = system: SR
SF-295 = system: SF-295
M14 = system: M14
SK-OV-3 = system: SK-OV-3
LOX IMVI = system: LOX IMVI
A498 = system: A498
UO-31 = system: UO-31
SF-539 = system: SF-539
UACC-257 = system: UACC-257
HCT-116 = system: HCT-116
U-251 = system: U-251
HOP-92 = system: HOP-92
IGROV-1 = system: IGROV-1
A549 = system: A549
NCI/ADR-RES = system: NCI/ADR-RES

Measured: GI50

NC(=O)OCC(COc1ccc(Cl)cc1)OC(=O)c1cc([N+](=O)[O-])cc([N+](=O)[O-])c1 (configuration not stated)
inactive: SF-268 > 100 µM | SK-MEL-28 > 100 µM | HCC 2998 > 100 µM | CAKI-1 > 100 µM | NCI-H460 40.6 µM | SR > 100 µM | SF-295 > 100 µM | M14 > 100 µM | SK-OV-3 > 100 µM | LOX IMVI 17.9 µM | A498 > 100 µM | UO-31 > 100 µM | SF-539 > 100 µM | UACC-257 > 100 µM | HCT-116 35.8 µM | U-251 > 100 µM | HOP-92 > 100 µM | IGROV-1 > 100 µM | A549 > 100 µM

CC1CC(c2ccccc2)=Nc2ccccc2S1 (configuration not stated)
inactive: SF-268 > 100 µM | SK-MEL-28 > 100 µM | HCC 2998 > 100 µM | CAKI-1 > 100 µM | NCI-H460 > 100 µM | SR > 100 µM | SF-295 > 100 µM | M14 > 100 µM | SK-OV-3 > 100 µM | LOX IMVI 84.7 µM | A498 > 100 µM | UO-31 > 100 µM | SF-539 > 100 µM | UACC-257 > 100 µM | HCT-116 > 100 µM | U-251 44.1 µM | HOP-92 > 100 µM | IGROV-1 > 100 µM | A549 > 100 µM

Nc1ncnc2c1ncn2C1C(O)C=C(CO)C1O (configuration not stated)
inactive: SF-268 > 625 µM | HCC 2998 > 625 µM | CAKI-1 > 625 µM | NCI-H460 > 625 µM | SF-295 > 625 µM | SK-OV-3 > 625 µM | LOX IMVI > 625 µM | UO-31 > 625 µM | SF-539 > 625 µM | HCT-116 > 625 µM | HOP-92 568 µM | IGROV-1 > 625 µM | NCI/ADR-RES > 625 µM | A549 > 625 µM

O=C(Nc1ccc(Cl)c(Cl)c1)C(=O)C(C(=O)c1ccccc1F)C1OC(=O)c2ccccc21 (configuration not stated)
inactive: SF-268 23.7 µM | SK-MEL-28 25.3 µM | HCC 2998 17.9 µM | CAKI-1 35.2 µM | NCI-H460 18.6 µM | SR 10.4 µM | SF-295 37.5 µM | M14 16.4 µM | SK-OV-3 27.7 µM | LOX IMVI 18.4 µM | A498 37.8 µM | UO-31 18.8 µM | SF-539 11.1 µM | UACC-257 40.8 µM | HCT-116 16.8 µM | U-251 12.7 µM | HOP-92 51.6 µM | IGROV-1 27.4 µM | A549 27.8 µM

O=c1cc(O)c1=O
inactive: SF-268 61.2 µM | SK-MEL-28 > 100 µM | HCC 2998 > 100 µM | CAKI-1 > 100 µM | NCI-H460 > 100 µM | SR > 100 µM | SF-295 > 100 µM | M14 > 100 µM | SK-OV-3 > 100 µM | LOX IMVI > 100 µM | A498 > 100 µM | UO-31 > 100 µM | SF-539 > 100 µM | UACC-257 > 100 µM | HCT-116 > 100 µM | U-251 > 100 µM | HOP-92 > 100 µM | IGROV-1 > 100 µM | A549 > 100 µM

CC(C)C1=C(O)C(=O)C2=C(C1=O)C(OC=O)C(O)C1C(C)(C)CCCC21C (configuration not stated)
inactive: SF-268 10.5 µM | SK-MEL-28 3.13 µM | HCC 2998 6.82 µM | CAKI-1 4.04 µM | NCI-H460 3.22 µM | SR 3 µM | SF-295 14.2 µM | M14 11.9 µM | SK-OV-3 13.4 µM | LOX IMVI 3.33 µM | A498 14.8 µM | UO-31 5.82 µM | SF-539 13.7 µM | UACC-257 9.1 µM | HCT-116 7.73 µM | U-251 4.28 µM | HOP-92 7.46 µM | IGROV-1 10.3 µM | A549 14.7 µM

Cc1c(OC(C)C(=O)O)ccc2c(-c3ccccc3)cc(=O)oc12 (configuration not stated)
inactive: SF-268 > 100 µM | SK-MEL-28 > 100 µM | HCC 2998 > 100 µM | CAKI-1 > 100 µM | NCI-H460 > 100 µM | SR > 100 µM | SF-295 > 100 µM | M14 > 100 µM | SK-OV-3 > 100 µM | LOX IMVI > 100 µM | A498 > 100 µM | UO-31 > 100 µM | SF-539 > 100 µM | UACC-257 > 100 µM | HCT-116 > 100 µM | U-251 > 100 µM | HOP-92 > 100 µM | IGROV-1 > 100 µM | A549 > 100 µM

COc1cc(C(C)c2cc3c(cc2OCCOCCOc2cc4c(cc2C(C)c2cc(OC)c(OC)c(OC)c2)OCO4)OCO3)cc(OC)c1OC (configuration not stated)
inactive: SF-268 > 10 µM | SK-MEL-28 > 10 µM | HCC 2998 > 10 µM | CAKI-1 > 10 µM | NCI-H460 > 10 µM | SR > 10 µM | SF-295 46.7 µM | M14 > 10 µM | SK-OV-3 > 10 µM | LOX IMVI > 10 µM | A498 > 10 µM | UO-31 29.7 µM | SF-539 > 10 µM | UACC-257 > 10 µM | HCT-116 > 10 µM | U-251 > 10 µM | HOP-92 16.4 µM | IGROV-1 > 10 µM | A549 > 10 µM
